{"source": "patent US20220356163A1", "about": "“SMALL MOLECULE INHIBITORS OF Id PROTEINS” (MEMORIAL SLOAN KETTERING CANCER CENTER, priority 2019, published 2022)", "key": {"[1]": {"test_system": "retinal neovascularization", "test": "Retinopathy of prematurity (ROP) model", "type": "in vivo, mouse", "conditions": "intraocular injection 10 μg at P12, assessed P17, p<0.01", "protocol": "In the ROP experiment 26 C57BL/6 pups, 36 Id^−/− and 22 Id3^−/− pups were place in 75% O2 at P7. On P12 the mice were returned to room air and at P17 they were euthanized and retinal neovascularization was measured as described above. In the AGX51 ROP experiment, C57BL/6 pups were place in 75% O2 at P7. On P12 the mice were returned to room air and injected in the eye with 10 μg AGX51 or DMSO in the FE (N=15 mice/group). On P17 they were euthanized and retinal neovascularization was measured as described above. Retinal neovascularization pathology can also be studied in mouse models of retinopathy of prematurity (ROP). In this model, post-natal day (P) 7 mice are placed in a 75% O2 chamber, which causes retinal capillary depletion. At P12, the mice are returned to room air, which leads to the development of retinal ischemia and proliferative vascular disease in the retinal vasculature. When this model was applied to Id1 or Id3 knockout mice, a significant decrease in retinal neovascularization was observed (p<0.0001) compared to wild type mice (FIG. 1C)."}, "[2]": {"test_system": "MDA-MB-453", "test": "MTT assay, MDA-MB-453", "type": "cell-based", "set-up": "scale not given here", "conditions": "MDA-MB-453, HER-2 +ve cell line, 24 hours", "from_the_text": "(§1) The 4T1 murine mammary tumor cell line and nine breast cancer cell lines representing the major breast cancer subtypes (ER+, HER2+, and TNBC) including MDA-MB-157, MDA-MB-436, MDA-MB-231, MDA-MB-453, MDA-MB-361, BT-474, SK-BR-3, MCF-7 and T47-D will be grown in RPMI or DMEM (Dulbecco's Modified Eagle Medium) media supplemented with 10% FBS (fetal bovine serum), 1% penicillin-streptomycin and 1% L-Glutamine. Patient derived xenograft cell lines BR7, BR11, and IBT will be established directly from breast cancer bone metastases specimens surgically resected from patients with informed consent. BR7 and BR11 specimens will be obtained from ER positive (HER2 negative and PR negative) metastatic breast cancer patients, while the IBT specimen will be obtained from a metastatic, triple negative breast cancer patient. Fresh tumor tissues will be quickly washed with ice cold PBS and minced into about 1-3 mm pieces in MEM medium (without FBS) using sterile razor blades. […] The cells will be treated with either 100 μM DMSO, AGX51, or a compound of the present technology such as AGX-A. The cell morphology and growth will be monitored daily for 1 week by microscopy for changes in morphology or cell death. […] Absorbance will then measured at 570 nm using a plate reader (Synergy 2, BioTek). […]"}, "[3]": {"test_system": "4T1", "test": "MTT assay, 4T1", "type": "cell-based", "conditions": "Mus musculus", "from_the_text": "as §1"}, "[4]": {"test": "Pharmacokinetics in serum after i.p. injection", "type": "in vivo, mouse", "protocol": "Pharmacokinetic analyses. To determine the pharmacokinetic parameters of AGX51, eight-week old male Balb/c mice (Taconic farms) were dosed once by i.p. injection with 30 mg/kg, 50 mg/kg or 100 mg/kg AGX51 prepared in 70% DMSO (n=3 mice per group). Another set of three mice was dosed with 100 mg/kg AGX51 prepared in 100% DMSO. Blood was collected at 30 minutes, 1 hour, 3 hours, 6 hours and 24 hours post AGX51 administration and plasma analyzed via LC-MS as per the protocol previously validated in the MSKCC Antitumor Assessment Core Facility. Following blood collection, the mice were sacrificed via CO2 asphyxiation and the eyes from the 30 mg/kg treatment group were collected and flash frozen for analysis. Data obtained from LC-MS was analyzed via WinNonLin software (version 8.1) for pharmacokinetic parameters.\nThe determination of the feasibility of administering AGX51 systemically for the treatment of ocular retinopathies was next explored. To determine the half-life of AGX51 in serum, mice were treated by intraperitoneal (i.p.) injection with a single dose of 30 mg/kg or 50 mg/kg AGX51 in 70% DMSO and blood was collected over a 24-hour period. […] Thus, 70% formulations were used in all future studies."}, "[5]": {"test_system": "PDX-BR7", "test": "MTT assay, PDX-BR7", "type": "cell-based", "conditions": "24 h, PDX-BR7, PDX cell line, read-out: IC50 value after 24 hours of treatment", "from_the_text": "as §1"}, "[6]": {"test_system": "MDA-MB-231", "test": "MTT assay, MDA-MB-231", "type": "cell-based", "set-up": "scale not given here", "conditions": "MDA-MB-231, TNBC cell line, 24 hours", "from_the_text": "as §1"}}, "note": "Values joined by “and” are separate entries in the source; they are usually repeats but may differ in a detail not shown here. Equal entries are not always repeated. Where two headings read alike, the source gives them in different places.", "data": [{"molecule": "CCC(=O)N(CCC(c1ccc2c(c1)OCO2)c1ccccc1OC)Cc1ccccc1", "note": "(racemic) [AGX51, N-(3-(benzo[d][1,3]dioxol-5-yl)-3-(2-methoxyphenyl)propyl)-N-benzylpropionamide]", "values": [{"measurement": "retinal neovascularization", "setting": "[1]", "result": "significantly reduced retinal neovascularization"}, {"measurement": "percentage at 60 μM (IC50 NA)", "setting": "[2]", "result": "NA (60 μM = 57%)"}, {"measurement": "IC50", "setting": "[3]; 24 h, 4T1, MTT, read-out: IC50 value after 24 hours of treatment", "result": 26.7, "unit": "µM"}, {"measurement": "IC50", "setting": "[3]; 4T1 cells, FIG. 7D, read-out: IC50", "result": 26.7, "unit": "µM"}, {"measurement": "mean maximum serum concentration", "setting": "[4]; 30 mg/kg i.p., 70% DMSO", "result": "1.1 μg/mL and 2.7 μM"}, {"measurement": "mean maximum serum concentration", "setting": "[4]; 50 mg/kg i.p., 70% DMSO", "result": "1.6 μg/mL and 4 μM"}, {"measurement": "mean maximum serum concentration vs lower doses", "setting": "[4]; 100 mg/kg i.p., 70% DMSO", "result": "not increased further"}, {"measurement": "mean serum concentration", "setting": "[4]; 100 mg/kg i.p., 100% DMSO", "result": "~12", "unit": "µM"}, {"measurement": "IC50", "setting": "[5]", "result": 10.9, "unit": "µM"}, {"measurement": "percentage at 60 μM (IC50 NA)", "setting": "[6]", "result": "NA (60 μM = 70%)"}]}]}
